Source: patent publication US20160129005A1, “ADENINE DERIVATIVES HAVING IMMUNOMODULATING ANTI-INFLAMMATORY AND ANALGESIC ACTIVITY” (MEDESTEA RESEARCH & PRODUCTION S.p.A., priority 2011, published 2016)

Key:
[1] = test system: Sprague-Dawley (SD) rats; assay: Renal ischaemia/reperfusion injury; assay type: in vivo, rat
Description: Ischaemia is an acute pathologic event in which there is reduction in blood supply with resultant injury or dysfunction of the affected tissue. Currently, the obstructed blood vessel is cleared by direct intervention. The resumption of normal circulation after a period of hypoxia causes quite considerable tissue injury, however, with fibrotic results that undermine the functionality of the affected organ. […] We wanted to check whether […] could reduce the injury due to reperfusion and to do so we used a model of renal ischaemia. The model envisages creation of an ischaemic event and then verification of the injury following treatment with […] or with the vehicle.
The experiment was conducted on Sprague-Dawley (SD) rats of 250-300 g divided into three groups. The first group, the […], only underwent an incision, which was kept open for 30 minutes, without ischaemic injury. The other two were pretreated, 30 minutes before undergoing the intervention, with intraperitoneal administration of vehicle (group 2) or of […] (group 3) 10 mg/kg. […]
The kidneys were sectioned for histologic analysis in double-blind conditions. The percentages of the tissue changes observed were counted using a 5-point semiquantitative scale, defined for assessing necrosis and cellular loss: 0=normal kidney; 0.5=<10%; 1=10-25%; 2=25-50%; 3=50-75%; 4=75-100%.

[2] = test system: male Fischer inbred rats; assay: Model of arthritis: complete Freund adjuvant paw inflammation, plantar test (Hargreaves); assay type: in vivo, rat
Method: […] was tested for possible antinociceptive and anti-inflammatory activity in a murine model of arthritis.
Unilateral inflammation of the posterior plantar pad of the rat (male Fischer inbred rats) was induced with a local injection of complete Freund adjuvant.
[…], 4 mg/kg, was administered intraperitoneally.
The rats were put in a transparent plastic chamber and were left to acclimatize for 5 minutes before the test.
Thermal stimulus, applied to the surface of the plantar pads of the rats, was produced by a halogen lamp (64607 OSRAM) of 8 V-50 W, through the plastic box; the diameter of the radiant beam measured about 12 mm. The time for withdrawal of the animal's right plantar pad was measured before and after injection of […].
A comparison was conducted on the anti-hyperalgesic and anti-inflammatory effect of a cortisone derivative, methylprednisolone acetate, administered intraperitoneally (5 mg/kg).

[3] = test system: Swiss CD1 mice; assay: CFA thermal hyperalgesia, synergy with opioids
Method: We compared the activity of […] with that of the opioids to study its analgesic effect.
Mice of the Swiss CD1 type were given a single intraplantar injection of 30 microlitres of complete Freund adjuvant (CFA) in the right plantar pad. Intraperitoneal injection of […] and/or of morphine (morphine chlorhydrate, Molteni) was administered 24 hours after injection of CFA according to the following scheme:
1. […] 7.5 mg/kg; 2. […] 10 mg/kg; 3. […] 200 mg/kg; 4. […] 50 mg/kg; 5. Morphine 0.4 mg/kg; 6. Morphine 2.5 mg/kg; 7. Morphine 1 mg/kg; 8. Morphine 0.4 mg/kg; 9. Morphine 1 mg/kg+[…] 10 mg/kg; 10. Morphine 0.4 mg/kg+[…] 10 mg/kg; 11. Morphine 1 mg/kg+[…] 10 mg/kg; 12. Morphine 0.4 mg/kg+[…] 10 mg/kg; 13. Morphine 4 mg/kg.
Groups 9-11 and 10-12 have the same doses respectively; they were repeated to confirm the results.
Thermal hyperalgesia was assessed using the Ugo Basile apparatus (Comerio, Italy).
The test was carried out before (baseline values) injection of CFA, after injection of CFA and 0.5, 1, 2, 3, 6 and 12 hours after injecting the drug in the inflamed pad.

[4] = test system: diabetic C57BL/6 mice transplanted with BALB/c islets; assay: Survival of allogenic pancreatic islets in murine transplant model; assay type: in vivo, mouse; details: 9 mg/kg or 30 mg/kg i.p. daily; FIG. 24
Method: C57BL/6 mice were made diabetic by administration of streptozotocin (170 mg/kg) and, following transplant of allogenic pancreatic islets, were treated with […].
The pancreatic islets, isolated from the BALB/c mouse, were inoculated in the diabetic mouse according to the procedure described by Abde R et al. (Diabetes 51 (8): 2489-2495). The glycaemia values were measured daily for monitoring the functionality of the transplanted cells.
The significance of rejection of transplanted cells that occurred was attributed to glycaemia values above 250 mg/dl, obtained in two consecutive measurements. After the cells were implanted (day 0), the mice were treated with intraperitoneal injections of 9 mg/kg or 30 mg/kg of […] daily.
The combination of […] and Rapamycin, currently the most used of the immunosuppressive drugs, was tested on the same animal model.
Both drugs were administered 6 times (day 0, day 2, day 4, day 6, day 8, day 10); […] was administered at 2 doses.

[5] = test system: C57/Bl/6 mice; assay: COPD: acute cigarette smoke exposure, BALF; assay type: in vivo, mouse; details: 6 mg/kg intratracheal; FIG. 39
Method: C57/Bl/6 mice aged 6-8 weeks were exposed to room air or to the smoke of 5 cigarettes/day (Virginia brand with filter; tar 12 mg and nicotine 0.9 mg) for 3 consecutive days. For exposure to smoke, a special cage was used, which permits air exchange with the exterior or with the device that contains the cigarette only due to a mechanical fan, which also allows the smoke to be diluted with the external air (1:8) in order to simulate the situation of a smoker.
Starting on the fourth day, the mice were anaesthetized 30 minutes before exposure to the smoke and were administered 6 mg/kg of […] or vehicle by intratracheal injection. The mice were sacrificed one hour after the end of the treatment and a bronchoalveolar lavage was carried out.

[6] = test system: mice; assay: COPD: chronic smoke exposure (6 months), lung morphometry and histology; assay type: in vivo, mouse; details: smoke 6 months, 4 mg/kg i.p. before daily exposure
Method: The activity of […] was also tested in a model of chronic exposure, which is closer to the aetiology of the human disorder. The mice were exposed to the smoke of 3 cigarettes a day or air for 5 days a week for 6 months, and were treated 30 minutes before the daily exposure with […] 4 mg/kg i.p.
At the end of the 6 months, the mice were sacrificed and a morphometric and histologic examination was conducted on the lung tissue.
The mean interalveolar distance (Lm) and mean internal surface area of the lung (ISA) were measured, being parameters that are correlated with degeneration of lung tissue and with the resultant decrease in respiratory function.

C=C(C=O)OC(C=O)n1cnc2c(N)ncnc21 (stereo not shown) [2-[1-(6-aminopurin-9-yl)-2-oxoethoxy]prop-2-enal]
renal injury (histological damage score and organ functionality) ([1]; 10 mg/kg i.p., FIG. 6): largely prevents renal injury
plasma creatinine levels ([1]; group 3, 10 mg/kg i.p. 30 minutes before ischaemia, 24 hours, group 1 = sham, FIG. 5): values much closer to those of group 1
time for withdrawal of the plantar pads (thermal stimulus) ([2]; 4 mg/kg intraperitoneally, to levels comparable to baseline, FIG. 7): significantly increases the time for withdrawal of the plantar pads
action relative to methylprednisolone acetate ([2]; IMMUFLAM 4 mg/kg i.p. vs methylprednisolone acetate 5 mg/kg i.p.): more effective action
values of nociception (thermal hyperalgesia) ([3]; IMMUFLAM alone i.p., all the doses tested): brings back the values of nociception to the baseline values
obsessive-compulsive disorders (behaviour) ([3]; mice treated with IMMUFLAM alone): did not display any behaviour of this kind
rejection of transplanted islets (glycaemia above 250 mg/dl twice) [4]: no rejection up to day 100
immune cells and messengers of inflammation in BALF [5]: slight finding of immune cells and of messengers of inflammation
ISA (mean internal surface area of the lung) [6]: 1153 ± 59 cm^2
Lm (mean interalveolar distance) [6]: 36.3 ± 1.1 μm
